Reference: patent US10556943B2, “HLA-DR binding peptides and their uses” (priority 2007, dated 2020)
Where two headings read alike, the source gives them in different places. Ends that are not written are not given here.

Key:
purified HLA DRB1*0701 = molecular target: T1, purified HLA DRB1*0701 (Homo sapiens, UniProt P01903+P01911, A100R/A102G/A103Q/D57E/D86V/E43K/F76Y/K127E/L162R/M171V/P40G/Q125H/Q99D/R33Q/R42Y/R54Q/S133A/S66F/T210M/V115G/Y107V/Y59L/Y89S); experiment: HLA-DR radioligand binding inhibition assay, DRB1*0701
T1 construct: MHC molecules utilized were purified from EBV transformed homozygous cell lines or single MHC allele transfected 721.221, C1R, or fibroblast lines; made in house; host or cells: EBV transformed homozygous cell lines or single MHC allele transfected 721.221, C1R, or fibroblast lines
Experimental: (§1) Fifteen distinct HLA-DR molecules were used in quantitative assays to measure the binding of peptides to solubilized HLA-DR molecules. […] Briefly, columns of inactivated Sepharose CL4B and Protein A Sepharose were used as pre-columns. HLA-DR molecules were captured by passage of lysates over LB3.1 monoclonal antibody (anti-HLA-DRA) columns. Antibody columns were washed with 10 mM Tris-HCL, pH8.0 with 1% (v/v) NP-40, followed by PBS containing 0.4% (w/v) n-octylglucoside.
(§2) Briefly, 1-10 nM of radiolabeled peptide was co-incubated for 2 days at either room temperature or 37° C. with 1 μM to 1 nM purified HLA-DR molecules in the presence of a cocktail of protease inhibitors. Assays were performed at various pH conditions, ranging from pH 4 to pH 7. […] After incubation, the percentage of HLA-DR-bound radioactivity is determined by capturing HLA-DR/peptide complexes on Optiplates (Packard Instruments, Meriden, Conn.) coated with the LB3.1 antibody and determining bound counts per minute using the TopCount microscintillation counter (Packard Instruments).

purified HLA DRB1*1302 = molecular target: T2, purified HLA DRB1*1302 (Homo sapiens, UniProt P01903+P01911, A100E/A169T/K41T/L162R/M171V/P40S/Q125H/Q178H/Q39Y/Q99D/R42S/S66N/T262R/V115G/W38E/Y61H); experiment: HLA-DR radioligand binding inhibition assay, DRB1*1302; details: column 6 of second part of Table I
T2 construct: MHC molecules utilized were purified from EBV transformed homozygous cell lines or single MHC allele transfected 721.221, C1R, or fibroblast lines; made in house; host or cells: EBV transformed homozygous cell lines or single MHC allele transfected 721.221, C1R, or fibroblast lines
Experimental: as §1, §2

purified HLA DRB4*0101 = molecular target: T3, purified HLA DRB4*0101 (Homo sapiens, UniProt P01903+P13762, G164S); experiment: HLA-DR radioligand binding inhibition assay, DRB4*0101
T3 construct: MHC molecules utilized were purified from EBV transformed homozygous cell lines or single MHC allele transfected 721.221, C1R, or fibroblast lines; made in house; host or cells: EBV transformed homozygous cell lines or single MHC allele transfected 721.221, C1R, or fibroblast lines
Experimental: as §1, with “n-octylglucoside. […] The pH was reduced to 8.0 and the eluates were concentrated by centrifugation in Centriprep 30 concentrators at 2000 rpm (Amicon, Beverly, Mass.).” for “n-octylglucoside.”
as §2, with “Instruments). […] Competitor peptides are tested in 2-4 complete, independent experiments, at concentrations ranging from 30 μg/mL to 300 pg/mL.” for “Instruments).”

purified HLA DRB1*1101 = molecular target: T4, purified HLA DRB1*1101 (Homo sapiens, UniProt P01903+P01911, A100R/A169T/A87E/I96F/K41T/L162R/M171V/P40S/Q125H/Q178H/Q39Y/Q99D/R42S/S66Y/T262R/V115G/W38E); experiment: HLA-DR radioligand binding inhibition assay, DRB1*1101
T4 construct: MHC molecules utilized were purified from EBV transformed homozygous cell lines or single MHC allele transfected 721.221, C1R, or fibroblast lines; made in house; host or cells: EBV transformed homozygous cell lines or single MHC allele transfected 721.221, C1R, or fibroblast lines
Experimental: as §1, with “n-octylglucoside. […] The pH was reduced to 8.0 and the eluates were concentrated by centrifugation in Centriprep 30 concentrators at 2000 rpm (Amicon, Beverly, Mass.).” for “n-octylglucoside.”
as §2, with “Instruments). […] Competitor peptides are tested in 2-4 complete, independent experiments, at concentrations ranging from 30 μg/mL to 300 pg/mL.” for “Instruments).”

purified HLA DRB1*0404 = molecular target: T5, purified HLA DRB1*0404 (Homo sapiens, UniProt P01903+P01911, A100R/A169T/F76Y/I96L/K127E/L162R/M171V/N62H/P40V/Q125Y/R42H/S133A/S149N/S66Y/V209L/W38E); experiment: HLA-DR radioligand binding inhibition assay, DRB1*0404
T5 construct: MHC molecules utilized were purified from EBV transformed homozygous cell lines or single MHC allele transfected 721.221, C1R, or fibroblast lines; made in house; host or cells: EBV transformed homozygous cell lines or single MHC allele transfected 721.221, C1R, or fibroblast lines
Experimental: as §1, with “n-octylglucoside. […] The pH was reduced to 8.0 and the eluates were concentrated by centrifugation in Centriprep 30 concentrators at 2000 rpm (Amicon, Beverly, Mass.).” for “n-octylglucoside.”
as §2, with “Instruments). […] Competitor peptides are tested in 2-4 complete, independent experiments, at concentrations ranging from 30 μg/mL to 300 pg/mL.” for “Instruments).”

purified HLA DRB1*0401 = molecular target: T6, purified HLA DRB1*0401 (Homo sapiens, UniProt P01903+P01911, A100K/A169T/F76Y/I96L/K127E/L162R/M171V/N62H/P40V/Q125Y/R42H/S133A/S149N/S66Y/V115G/V209L/W38E); experiment: HLA-DR radioligand binding inhibition assay, DRB1*0401
T6 construct: MHC molecules utilized were purified from EBV transformed homozygous cell lines or single MHC allele transfected 721.221, C1R, or fibroblast lines; made in house; host or cells: EBV transformed homozygous cell lines or single MHC allele transfected 721.221, C1R, or fibroblast lines
Experimental: as §1, with “n-octylglucoside. […] The pH was reduced to 8.0 and the eluates were concentrated by centrifugation in Centriprep 30 concentrators at 2000 rpm (Amicon, Beverly, Mass.).” for “n-octylglucoside.”
as §2, with “Instruments). […] Competitor peptides are tested in 2-4 complete, independent experiments, at concentrations ranging from 30 μg/mL to 300 pg/mL.” for “Instruments).”

purified HLA DRB5*0101 = molecular target: T7, purified HLA DRB5*0101 (Homo sapiens, UniProt P01903+Q30154); experiment: HLA-DR radioligand binding inhibition assay, DRB5*0101
T7 construct: MHC molecules utilized were purified from EBV transformed homozygous cell lines or single MHC allele transfected 721.221, C1R, or fibroblast lines; made in house; host or cells: EBV transformed homozygous cell lines or single MHC allele transfected 721.221, C1R, or fibroblast lines
Experimental: as §1, with “n-octylglucoside. […] The pH was reduced to 8.0 and the eluates were concentrated by centrifugation in Centriprep 30 concentrators at 2000 rpm (Amicon, Beverly, Mass.).” for “n-octylglucoside.”
as §2, with “Instruments). […] Competitor peptides are tested in 2-4 complete, independent experiments, at concentrations ranging from 30 μg/mL to 300 pg/mL.” for “Instruments).”

purified HLA DRB1*0101 = molecular target: T8, purified HLA DRB1*0101 (Homo sapiens, UniProt P01903+P01911, A100R/D57E/F55L/F60I/F76Y/I96L/L162R/M171V/P40L/Q125E/R42F/V115G/Y59C); experiment: HLA-DR radioligand binding inhibition assay, DRB1*0101; details: read-out: IC50 to purified HLA DRB1*0101
T8 construct: MHC molecules utilized were purified from EBV transformed homozygous cell lines or single MHC allele transfected 721.221, C1R, or fibroblast lines; made in house; host or cells: EBV transformed homozygous cell lines or single MHC allele transfected 721.221, C1R, or fibroblast lines
Experimental: as §1, §2

T4 sequence (P01903 26-254, other chains not shown): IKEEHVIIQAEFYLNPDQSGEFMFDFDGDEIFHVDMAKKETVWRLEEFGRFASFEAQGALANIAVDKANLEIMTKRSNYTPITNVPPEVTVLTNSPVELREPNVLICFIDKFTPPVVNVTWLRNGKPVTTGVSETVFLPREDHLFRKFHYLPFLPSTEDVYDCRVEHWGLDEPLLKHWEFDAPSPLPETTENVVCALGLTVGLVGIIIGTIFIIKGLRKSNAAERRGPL
T2 sequence (P01903 26-254, other chains not shown): as above

IC50 (purified HLA DRB1*1101)	IC50 (purified HLA DRB1*0404)	IC50 (purified HLA DRB5*0101)	Molecule	also measured
			KELAVFREKVTEQHR [Peptide 9019.0186]	IC50 (purified HLA DRB1*0701): > 20 µM; IC50 (purified HLA DRB1*1302): > 20 µM
> 20 µM	> 20 µM		CC[C@H](C)[C@H](NC(=O)CNC(=O)[C@H](CC(=O)O)NC(=O)[C@H](Cc1ccc(O)cc1)NC(=O)[C@@H]1CCCN1C(=O)[C@H](CCCCN)NC(=O)[C@H](C)N)C(=O)N1CCC[C@H]1C(=O)N[C@@H](C)C(=O)N[C@@H](CCCNC(=N)N)C(=O)N[C@@H](CCC(=O)O)C(=O)N[C@H](C(=O)N1CCC[C@H]1C(=O)N[C@@H](CC(=O)O)C(=O)N[C@@H](CC(C)C)C(=O)O)[C@@H](C)CC [Peptide 9019.0092]	IC50 (purified HLA DRB4*0101): > 20 µM; IC50 (purified HLA DRB1*0401): > 20 µM
		> 20 µM	CC(C)C[C@H](NC(=O)[C@@H]1CCCN1C(=O)[C@H](CO)NC(=O)[C@@H]1CCCN1C(=O)[C@H](CC(=O)O)NC(=O)[C@H](Cc1c[nH]cn1)NC(=O)[C@@H](NC(=O)[C@@H]1CCCN1C(=O)[C@H](CC(C)C)NC(=O)[C@H](CO)NC(=O)[C@H](CCC(N)=O)NC(=O)[C@H](CC(C)C)NC(=O)CNC(=O)[C@H](CCCCN)NC(=O)[C@H](C)N)[C@@H](C)O)C(=O)O [Peptide 9019.0098]	
> 20 µM	> 20 µM	17 µM	CC[C@H](C)[C@H](NC(=O)[C@H](CCCCN)NC(=O)[C@H](CCCNC(=N)N)NC(=O)[C@@H](N)CCSC)C(=O)N[C@H](C(=O)N[C@@H](C)C(=O)N[C@H](C(=O)N[C@@H](Cc1c[nH]c2ccccc12)C(=O)N[C@@H](CCSC)C(=O)N[C@@H](CC(C)C)C(=O)N[C@@H](CCC(=O)O)C(=O)N[C@H](C(=O)N[C@@H](CS)C(=O)N[C@@H](CCC(=O)O)C(=O)N[C@@H](CCC(=O)O)C(=O)O)C(C)C)[C@@H](C)O)C(C)C [Peptide 9019.0151]	
		10.2 µM	CC[C@H](C)[C@H](NC(=O)[C@@H](NC(=O)[C@H](Cc1ccc(O)cc1)NC(=O)CN)C(C)C)C(=O)NCC(=O)N[C@H](C(=O)N[C@@H](CCC(N)=O)C(=O)N[C@@H](CCC(N)=O)C(=O)N[C@@H](C)C(=O)N[C@H](C(=O)N1CCC[C@H]1C(=O)NCC(=O)N1CCC[C@H]1C(=O)N[C@@H](C)C(=O)N[C@@H](Cc1ccc(O)cc1)C(=O)O)[C@@H](C)O)[C@@H](C)O [Peptide 9019.0110]	
			CC[C@H](C)[C@H](N)C(=O)N[C@@H](CS)C(=O)N[C@H](C(=O)N[C@H](C(=O)N[C@@H](CC(=O)O)C(=O)N[C@H](C(=O)N[C@@H](Cc1ccc(O)cc1)C(=O)N[C@@H](CCSC)C(=O)N[C@H](C(=O)N[C@@H](CCSC)C(=O)N[C@H](C(=O)N[C@@H](CCCCN)C(=O)N[C@@H](CS)C(=O)N[C@@H](Cc1c[nH]c2ccccc12)C(=O)N[C@@H](CCSC)C(=O)O)C(C)C)[C@@H](C)CC)C(C)C)[C@@H](C)CC)[C@@H](C)O [Peptide 1622.04]	IC50 (purified HLA DRB1*0101): > 20 µM; IC50 (purified HLA DRB1*0404; read-out: IC50 to purified HLA DRB1*0404, purified HLA DRB1*0404): > 20 µM
